# Data from patent US10100064B2, “Purine inhibitors of human phosphatidylinositol 3-kinase delta” (Merck Sharp & Dohme Corp., priority 2014, dated 2018).
# How the values were obtained:
# PI3Kalpha = biological target: T1, PI3Kalpha (Homo sapiens, UniProt P42336); test: HTRF PI3K biochemical assay, alpha isoform (selectivity versus delta); conditions: relative ratio PI3K-alpha IC50 value / PI3K-delta IC50 value
# T1 construct: purchased Upstate; Millipore 14-602
# Summary of the method: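 Recombinant PI3Kα (0.5 nM) pre-incubated 15 min with compound, then reacted 1 h at room temperature with 5 μM PIP2 and 100 μM ATP. After EDTA stop, PIP3 measured by HTRF displacement of biotin-PIP3 from GST-GRP1 PH domain (665/620 nm). 10-point dose response; IC50 corrected using a PIP3 standard curve.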
# PI3Kdelta = biological target: T2, PI3Kdelta (Homo sapiens, UniProt O00329); test: HTRF PI3K biochemical assay, delta isoform; conditions: 0.3 nM enzyme, 100 uM ATP, 5 uM PIP2, form screened (Neutral or TFA salt) given per compound
# T2 construct: purchased Upstate; Millipore 14-604
# T2 sequence (O00329 whole entry, canonical isoform): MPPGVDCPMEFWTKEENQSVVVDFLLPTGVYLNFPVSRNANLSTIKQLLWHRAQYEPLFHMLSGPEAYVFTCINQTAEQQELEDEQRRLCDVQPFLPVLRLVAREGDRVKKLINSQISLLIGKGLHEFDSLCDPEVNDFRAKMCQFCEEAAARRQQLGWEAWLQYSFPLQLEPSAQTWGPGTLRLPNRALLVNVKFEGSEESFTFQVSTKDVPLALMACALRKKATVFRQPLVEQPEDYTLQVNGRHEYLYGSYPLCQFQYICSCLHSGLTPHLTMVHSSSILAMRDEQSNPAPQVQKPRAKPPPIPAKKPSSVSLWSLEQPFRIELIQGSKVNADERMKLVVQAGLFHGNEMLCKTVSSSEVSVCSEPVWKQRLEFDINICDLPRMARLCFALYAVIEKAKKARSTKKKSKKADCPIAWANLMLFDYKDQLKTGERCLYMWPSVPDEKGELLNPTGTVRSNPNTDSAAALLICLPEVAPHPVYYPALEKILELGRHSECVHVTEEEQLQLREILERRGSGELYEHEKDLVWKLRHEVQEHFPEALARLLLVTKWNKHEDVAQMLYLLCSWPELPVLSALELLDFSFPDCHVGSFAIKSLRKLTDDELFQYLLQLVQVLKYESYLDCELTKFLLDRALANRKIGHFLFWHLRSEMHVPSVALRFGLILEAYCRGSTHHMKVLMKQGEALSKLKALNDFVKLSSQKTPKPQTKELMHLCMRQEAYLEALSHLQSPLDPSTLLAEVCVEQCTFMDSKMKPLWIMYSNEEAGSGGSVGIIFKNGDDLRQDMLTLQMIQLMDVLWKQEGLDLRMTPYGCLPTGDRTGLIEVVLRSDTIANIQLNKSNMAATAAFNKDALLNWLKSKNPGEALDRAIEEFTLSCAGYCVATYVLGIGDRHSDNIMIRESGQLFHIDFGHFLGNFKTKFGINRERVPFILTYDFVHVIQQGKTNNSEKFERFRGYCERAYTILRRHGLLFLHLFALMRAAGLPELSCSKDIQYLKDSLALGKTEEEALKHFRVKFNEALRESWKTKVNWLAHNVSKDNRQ
# T2 sequence (P27986 whole entry partner, canonical isoform): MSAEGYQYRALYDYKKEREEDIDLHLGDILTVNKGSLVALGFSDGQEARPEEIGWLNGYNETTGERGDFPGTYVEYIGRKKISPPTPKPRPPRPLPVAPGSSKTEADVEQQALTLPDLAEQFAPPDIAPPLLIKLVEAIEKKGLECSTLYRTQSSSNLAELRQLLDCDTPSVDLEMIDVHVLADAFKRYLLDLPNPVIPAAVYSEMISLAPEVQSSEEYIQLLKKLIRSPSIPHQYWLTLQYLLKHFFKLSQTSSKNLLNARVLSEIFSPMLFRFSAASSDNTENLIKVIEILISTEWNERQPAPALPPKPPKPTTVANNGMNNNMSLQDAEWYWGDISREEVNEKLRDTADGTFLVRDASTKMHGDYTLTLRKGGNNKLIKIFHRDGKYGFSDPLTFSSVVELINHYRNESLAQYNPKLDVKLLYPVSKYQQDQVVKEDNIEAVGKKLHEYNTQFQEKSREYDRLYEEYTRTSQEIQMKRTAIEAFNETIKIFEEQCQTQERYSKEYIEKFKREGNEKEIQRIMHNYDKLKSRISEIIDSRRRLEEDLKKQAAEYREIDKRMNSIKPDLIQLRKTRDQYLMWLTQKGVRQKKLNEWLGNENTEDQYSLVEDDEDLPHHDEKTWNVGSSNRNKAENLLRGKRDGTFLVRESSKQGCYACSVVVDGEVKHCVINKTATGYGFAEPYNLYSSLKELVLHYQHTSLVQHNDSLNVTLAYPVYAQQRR
# Summary of the method: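 PI3Kδ at 0.3 nM with 100 uM ATP and 5 uM PIP2, 10-point 3-fold dilutions, 15 min enzyme–compound pre-incubation, then 1 h reaction at room temperature. PIP3 formation detected by HTRF displacement of biotin-PIP3 from GST-GRP1-PH (665/620 nm ratio). IC50 corrected using a PIP3 standard curve.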
# T1 sequence (P42336 whole entry, canonical isoform): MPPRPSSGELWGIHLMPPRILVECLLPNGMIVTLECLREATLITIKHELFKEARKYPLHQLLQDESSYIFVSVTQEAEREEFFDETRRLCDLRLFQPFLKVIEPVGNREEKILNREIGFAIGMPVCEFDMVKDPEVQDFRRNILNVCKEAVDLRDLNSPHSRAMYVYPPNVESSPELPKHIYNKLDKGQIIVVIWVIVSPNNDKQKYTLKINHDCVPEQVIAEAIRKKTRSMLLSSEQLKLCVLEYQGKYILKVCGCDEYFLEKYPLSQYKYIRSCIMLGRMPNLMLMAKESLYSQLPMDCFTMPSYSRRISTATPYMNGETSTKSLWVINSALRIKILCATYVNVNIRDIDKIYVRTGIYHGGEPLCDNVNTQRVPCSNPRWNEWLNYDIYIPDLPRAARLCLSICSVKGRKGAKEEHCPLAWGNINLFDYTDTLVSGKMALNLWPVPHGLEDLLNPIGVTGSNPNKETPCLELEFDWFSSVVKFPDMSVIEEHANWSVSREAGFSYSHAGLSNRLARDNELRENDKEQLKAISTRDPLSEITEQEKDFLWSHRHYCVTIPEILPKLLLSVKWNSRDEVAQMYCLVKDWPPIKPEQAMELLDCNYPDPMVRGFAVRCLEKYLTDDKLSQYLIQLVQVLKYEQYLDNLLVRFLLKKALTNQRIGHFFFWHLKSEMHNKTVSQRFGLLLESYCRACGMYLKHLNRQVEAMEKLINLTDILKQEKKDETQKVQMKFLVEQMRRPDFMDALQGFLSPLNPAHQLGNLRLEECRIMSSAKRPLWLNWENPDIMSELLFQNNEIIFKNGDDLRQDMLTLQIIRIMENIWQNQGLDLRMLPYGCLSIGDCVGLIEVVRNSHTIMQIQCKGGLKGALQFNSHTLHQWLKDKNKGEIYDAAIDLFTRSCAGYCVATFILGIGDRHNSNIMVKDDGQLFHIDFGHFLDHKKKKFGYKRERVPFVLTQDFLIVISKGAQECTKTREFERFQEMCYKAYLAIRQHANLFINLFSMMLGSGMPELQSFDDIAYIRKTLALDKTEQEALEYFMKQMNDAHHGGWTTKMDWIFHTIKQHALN
# T1 sequence (P27986 whole entry partner, canonical isoform): as the sequence (P27986 whole entry partner, canonical isoform) above
Compound,Selectivity versus PI3Kalpha (PI3Kalpha),IC50 (PI3Kdelta) [nM]
"CCn1c(C(F)F)nc2c(NC3CCc4nnc(C(C)C)n4C3)ncnc21 (single isomer, unassigned) [Compound 1-9, (S or R)-8-(difluoromethyl)-9-ethyl-N-[3-(1-methylethyl)-5,6,7,8-tetrahydro[1,2,4]triazolo[4,3-a]pyridin-6-yl]-9H-purin-6-amine]",>10,16
"CCn1c(-c2cnc(C)nc2)nc2c(NC3CCc4c(c(C(C)C)nn4C)C3)ncnc21 (single isomer, unassigned) [Compound 2-25, (S or R)-9-ethyl-N-[(5S)-1-methyl-3-(1-methylethyl)-4,5,6,7-tetrahydro-1H-indazol-5-yl]-8-(2-methylpyrimidin-5-yl)-9H-purin-6-amine]",>10,14
"CCn1c(-c2cnc(C)nc2)nc2c(NC3CCc4c(c(C(C)C)nn4C(=O)c4ccccc4)C3)ncnc21 (racemic) [Compound 2-13, (S and R)-9-ethyl-N-[3-(1-methylethyl)-1-(phenylcarbonyl)-4,5,6,7-tetrahydro-1H-indazol-5-yl]-8-(2-methylpyrimidin-5-yl)-9H-purin-6-amine]",>10,30
"CCn1c(-c2cnc(C)nc2)nc2c(OC3CCc4nnc(C(C)C)n4C3)ncnc21 (single isomer, unassigned) [Compound 1-33, (S or R)-9-ethyl-6-{[3-(1-methylethyl)-5,6,7,8-tetrahydro[1,2,4]triazolo[4,3-a]pyridin-6-yl]oxy}-8-(2-methylpyrimidin-5-yl)-9H-purine]",>10,35
"CCn1c(-c2cnc(C)nc2)nc2c(N[C@H]3Cc4nnc(C5CC5)n4C3)ncnc21 [Compound 1-38, N-[(6S)-3-cyclopropyl-6,7-dihydro-5H-pyrrolo[2,1-c][1,2,4]triazol-6-yl]-9-ethyl-8-(2-methylpyrimidin-5-yl)-9H-purin-6-amine]",>10,5
"CCn1c(-c2ccc(C(F)(F)F)cc2)nc2c(NC3CCc4[nH]nc(C(C)C)c4C3)ncnc21 (single isomer, unassigned) [Compound 2-7, (S or R)-9-ethyl-N-[3-(1-methylethyl)-4,5,6,7-tetrahydro-1H-indazol-5-yl]-8-[4-(trifluoromethyl)phenyl]-9H-purin-6-amine]",>10,1.7
"CCn1c(-c2ccc(OC)nc2)nc2c(NC3CCc4nnc(C5CC5)n4C3)ncnc21 (racemic) [Compound 1-12, (S and R)-N-(3-cyclopropyl-5,6,7,8-tetrahydro[1,2,4]triazolo[4,3-a]pyridin-6-yl)-9-ethyl-8-(6-methoxypyridin-3-yl)-9H-purin-6-amine]",>10,1.2
"CCn1c(-c2cnc(C)nc2)nc2c(NC3CCc4nnc(C5CC5)n4C3)ncnc21 (single isomer, unassigned) [Compound 1-1, (S or R)-N-(3-cyclopropyl-5,6,7,8-tetrahydro[1,2,4]triazolo[4,3-a]pyridin-6-yl)-9-ethyl-8-(2-methylpyrimidin-5-yl)-9H-purin-6-amine]",>10,4.2
"CCn1ncc(-c2nc3c(NC4CCc5nnc(C6CC6)n5C4)ncnc3n2CC)c1C (racemic) [Compound 1-17, (S and R)-N-(3-cyclopropyl-5,6,7,8-tetrahydro[1,2,4]triazolo[4,3-a]pyridin-6-yl)-9-ethyl-8-(1-ethyl-5-methyl-1H-pyrazol-4-yl)-9H-purin-6-amine]",>10,< 1
"CCn1c(-c2cnc(OC)c(Cl)c2)nc2c(NC3CCc4nnc(C(C)C)n4C3)ncnc21 (single isomer, unassigned) [Compound 1-22, (S or R)-8-(5-chloro-6-methoxypyridin-3-yl)-9-ethyl-N-[3-(1-methylethyl)-5,6,7,8-tetrahydro[1,2,4]triazolo[4,3-a]pyridin-6-yl]-9H-purin-6-amine]",>10,221
"CCn1c(-c2cnc(C)nc2)nc2c(OC3CCc4nnc(C5CC5)n4C3)ncnc21 (single isomer, unassigned) [Compound 1-32, (S or R)-6-{[3-cyclopropyl-5,6,7,8-tetrahydro[1,2,4]triazolo[4,3-a]pyridin-6-yl]oxy}-9-ethyl-8-(2-methylpyrimidin-5-yl)-9H-purine]",>10,4.4
"CCn1c(-c2cnc(C)nc2)nc2c(OC3CCc4nnc(C(C)C)n4C3)ncnc21 (single isomer, unassigned) [Compound 1-34, (S or R)-9-ethyl-6-{[3-(1-methylethyl)-5,6,7,8-tetrahydro[1,2,4]triazolo[4,3-a]pyridin-6-yl]oxy}-8-(2-methylpyrimidin-5-yl)-9H-purine]",>10,4.1
"CCn1c(-c2cnc(C)nc2)nc2c(NC3CCc4nnc(-c5ccccc5)n4C3)ncnc21 (single isomer, unassigned) [Compound 1-3, (S or R)-9-ethyl-8-(2-methylpyrimidin-5-yl)-N-[3-phenyl-5,6,7,8-tetrahydro[1,2,4]triazolo[4,3-a]pyridin-6-yl]-9H-purin-6-amine]",>10,5.9
"CCn1c(-c2ccc(C(F)(F)F)nc2)nc2c(NC3CCc4nnc(C5CC5)n4C3)ncnc21 (racemic) [Compound 1-11, (S and R)-N-(3-cyclopropyl-5,6,7,8-tetrahydro[1,2,4]triazolo[4,3-a]pyridin-6-yl)-9-ethyl-8-[6-(trifluoromethyl)pyridin-3-yl]-9H-purin-6-amine]",>10,4.1

# Continued, values first:
Selectivity versus PI3Kalpha (PI3Kalpha),IC50 (PI3Kdelta) [nM],Compound
>10,11,"CCn1c(-c2cnc(C)nc2)nc2c(NC3CCc4cnc(C5CC5)n4C3)ncnc21 (single isomer, unassigned) [Compound 3-1, (S or R)-N-[3-cyclopropyl-5,6,7,8-tetrahydroimidazo[1,5-a]pyridin-6-yl]-9-ethyl-8-(2-methylpyrimidin-5-yl)-9H-purin-6-amine]"
>10,4.7,"CCn1c(-c2cnc(C)nc2)nc2c(NC3CCc4ncn([C@H]5C[C@@H](OC)C5)c4C3)ncnc21 (single isomer, unassigned) [Compound 5-13, (S or R)-9-ethyl-N-[1-(cis-3-methoxycyclobutyl)-4,5,6,7-tetrahydro-1H-benzimidazol-6-yl]-8-(2-methylpyrimidin-5-yl)-9H-purin-6-amine]"
>10,550,"CCc1cnc2n1CC(Oc1ncnc3c1nc(-c1cnc(C)nc1)n3CC)C2 (racemic) [Compound 4-5, (S and R)-9-ethyl-6-[(3-ethyl-6,7-dihydro-5H-pyrrolo[1,2-a]imidazol-6-yl)oxy]-8-(2-methylpyrimidin-5-yl)-9H-purine]"
>10,9,"CCn1c(-c2cnc(C)nc2)nc2c(NC3Cc4c(ncn4C(C)C)C(C)C3)ncnc21 (single isomer, unassigned) [Compound 5-17, 9-ethyl-N-[(4(S or R), 6(S or R)-4-methyl-1-(1-methylethyl)-4,5,6,7-tetrahydro-1H-benzimidazol-6-yl]-8-(2-methylpyrimidin-5-yl)-9H-purin-6-amine]"
>10,< 1,"CCn1c(-c2cnc(C)nc2)nc2c(NC3CCc4nc(C(F)F)n(C5CC5)c4C3)ncnc21 (single isomer, unassigned) [Compound 5-10, (S or R)-N-[1-cyclopropyl-2-(difluoromethyl)-4,5,6,7-tetrahydro-1H-benzimidazol-6-yl]-9-ethyl-8-(2-methylpyrimidin-5-yl)-9H-purin-6-amine]"
>10,170,"CCn1c(C(F)F)nc2c(NC3CCc4ncn(C5CC5)c4C3)ncnc21 (single isomer, unassigned) [Compound 5-6, (S or R)-N-(1-cyclopropyl-4,5,6,7-tetrahydro-1H-benzimidazol-6-yl)-8-(difluoromethyl)-9-ethyl-9H-purin-6-amine]"
